# Reference: paper PMC9822074, “Triterpenic Acid Amides as Potential Inhibitors of the SARS-CoV-2 Main Protease” (Molecules, 2022)
# Molecular target: T1, SARS-CoV-2 main protease (Mpro, 3CLpro) (Severe acute respiratory syndrome coronavirus 2, UniProt P0DTD1)
# T1 construct: gene rep
# Experiment: FRET peptide cleavage assay
# Assay type: biochemical
# From the text: FRET peptide cleavage assay on SARS-CoV-2 main protease (Mpro, 3CLpro)
row,SMILES,IC50
1,C=C(C)[C@@H]1CC[C@]2(C(=O)NCCOc3ccc(CCOc4ccc(C[C@H](OCC)C(=O)O)cc4)cc3)CC[C@]3(C)[C@H](CC[C@@H]4[C@@]5(C)CCC(=O)C(C)(C)[C@@H]5CC[C@]43C)[C@@H]12 [1a],100 ± 5 µM
2,CCO[C@@H](Cc1ccc(OCCc2ccc(OCCNC(=O)[C@]34CC[C@@H](C(C)C)[C@@H]3[C@H]3CC[C@@H]5[C@@]6(C)CCC(=O)C(C)(C)[C@@H]6CC[C@@]5(C)[C@]3(C)CC4)cc2)cc1)C(=O)O [1b],100 ± 5 µM
3,CCO[C@@H](Cc1ccc(OCCc2ccc(OCCNC(=O)[C@]34CC[C@@H](C)[C@H](C)[C@H]3C3=CC[C@@H]5[C@@]6(C)CC[C@H](O)C(C)(C)[C@@H]6CC[C@@]5(C)[C@]3(C)CC4)cc2)cc1)C(=O)O [1d],100 ± 5 µM
4,CCO[C@@H](Cc1ccc(OCCc2ccc(OCCNC(=O)[C@]34CC[C@@H](C)[C@H](C)[C@H]3C3=CC[C@@H]5[C@@]6(C)C[C@@H](O)[C@H](O)C(C)(C)[C@@H]6CC[C@@]5(C)[C@]3(C)CC4)cc2)cc1)C(=O)O [1e],25 ± 3 µM
